In US8344000B2, “Compounds which have activity at M1 receptor and their uses in medicine” (Glaxo Group Limited, priority 2007, dated 2013):

Target: T1, human muscarinic M1 receptors (Homo sapiens, UniProt P11229)
T1 construct: expressed in transfected cells
T1 sequence (P11229 1-460): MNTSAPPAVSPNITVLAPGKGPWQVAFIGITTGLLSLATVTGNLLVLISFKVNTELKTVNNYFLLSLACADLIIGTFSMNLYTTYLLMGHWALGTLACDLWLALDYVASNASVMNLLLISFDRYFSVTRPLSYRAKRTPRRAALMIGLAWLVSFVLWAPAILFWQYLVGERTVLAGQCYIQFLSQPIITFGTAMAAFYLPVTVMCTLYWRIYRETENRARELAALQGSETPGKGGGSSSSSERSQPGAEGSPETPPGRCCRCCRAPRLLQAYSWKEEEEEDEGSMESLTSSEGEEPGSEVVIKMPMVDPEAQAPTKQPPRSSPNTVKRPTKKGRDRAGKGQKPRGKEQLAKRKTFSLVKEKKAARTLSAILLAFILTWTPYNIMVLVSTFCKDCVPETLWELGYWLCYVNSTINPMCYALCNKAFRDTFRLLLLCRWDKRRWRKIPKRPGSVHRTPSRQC
Assay: FLIPR experiments on M1 receptors (calcium response, CHO-M1 cells)
Format: cell-based
Conditions: tested for activity; assay and threshold not specified at the place
Method: FLIPR Experiments on M1 Receptors to Determine Agonist/Antagonist Potency
Compounds of the invention were characterized in a functional assay to determine their ability to activate the intracellular calcium pathway in CHO cells with stable expression of human muscarinic M1 receptors using FLIPR (Fluorometric Imaging Plate Reader) technology. Briefly, CHO-M1 cells were plated (15,000/well) and allowed to grow overnight at 37 degrees. Media were removed and 30 μL loading buffer (HBSS with 2.5 mM probenicid, 2 μM Fluo-4, 500 μM Brilliant Black, pH 7.4) was added. After incubation at 37 degrees for 90 minutes, 10 μL of the assay buffer (HBSS with 2.5 mM probenecid, pH 7.4) containing test compounds was added to each well on the FLIPR instrument. Calcium response was monitored to determine agonism. […] Calcium response was then monitored again to determine compound's antagonism to acetylcholine. […] Results were imported into ActivityBase data analysis suite (ID Business Solution Inc., Parsippany, N.J.) where the curves were analysed by non-linear curve fitting and the resulting pEC50/fpKi were calculated. The maximum asymptotes of agonist compounds were calculated as percentage of maximum FLIPR response induced by carbamoylcholine chloride added as control on the same compound plates.

With `Cl.O=C1Cc2ccccc2N1C1CCN(C2CCOCC2)CC1` [1-[1-(Tetrahydro-2H-pyran-4-yl)-4-piperidinyl]-1,3-dihydro-2H-indol-2-one hydrochloride] the activity was “below the threshold value”.
